Legend:
[1] = test system: TNFα production in RAW 264.7 macrophage cell line; experiment: Mouse TNF alpha quantification assay (LPS-stimulated macrophages, ELISA); type: cell-based; conditions: RAW264.7, RAW 264.7 murine leukemia virus transformed macrophage cell lines, LPS stimulation, read-out: TNF-α % Inhibition at 30 μM
[2] = test system: IL6 production in RAW 264.7 macrophage cell line; experiment: Mouse IL6 quantification assay (LPS-stimulated macrophages, ELISA); type: cell-based; conditions: RAW264.7, RAW 264.7 murine leukemia virus transformed macrophage cell lines, LPS stimulation, read-out: IL-6 % Inhibition at 30 μM

| Compound | inhibition at 30 µM [1] | inhibition at 30 µM [2] |
| --- | --- | --- |
| Cc1nc2nc(C(F)(F)F)nn2c(C)c1CC(=O)Nc1nnc(-c2ccccn2)[nH]1 [drawing 1984] | 1 to 25% | 0% |
| COc1cccc(COCC(=O)Nc2nnc(-c3ccccn3)[nH]2)c1 [drawing 1985] | 1 to 25% | 26 to 50% |
| COc1ccccc1C1CC1C(=O)Nc1nnc(-c2ccccn2)[nH]1 (centres unmarked) [drawing 1986] | 1 to 25% | 26 to 50% |
| O=C(Cn1c(=O)[nH]c2ccccc21)Nc1nnc(-c2ccccn2)[nH]1 [drawing 1987] | 1 to 25% | 1 to 25% |
| CN(CC(=O)Nc1nnc(-c2ccccn2)[nH]1)Cc1ccccc1 [drawing 1988] | 1 to 25% | 26 to 50% |
| O=C(Nc1nnc(-c2ccccn2)[nH]1)c1cccc(N2CCCS2(=O)=O)c1 [drawing 1989] | 1 to 25% | 1 to 25% |
| CC(C)C(=O)Nc1nc(CC(=O)Nc2nnc(-c3ccccn3)[nH]2)cs1 [drawing 1990] | 1 to 25% | 0% |
| CC(C)(C)c1nc(C(=O)Nc2nnc(-c3ccccn3)[nH]2)cs1 [drawing 1991] | 0% | 1 to 25% |
| O=C(Nc1nnc(-c2ccccn2)[nH]1)C1=NOC(c2ccccc2)C1 (centres unmarked) [drawing 1992] | 1 to 25% | 26 to 50% |
| O=C(COc1ccccc1)Nc1nnc(-c2ccccn2)[nH]1 [drawing 1993] | 0% | 1 to 25% |
| O=C(Nc1nnc(-c2ccccn2)[nH]1)c1csc(-c2ccco2)n1 [drawing 1994] | 0% | 51 to 75% |
| O=C(Nc1nnc(-c2ccccn2)[nH]1)C1Cc2cc(Cl)ccc2O1 (centres unmarked) [drawing 1995] | 1 to 25% | 51 to 75% |
| O=C(Cc1ccc2c(c1)OCO2)Nc1nnc(-c2ccccn2)[nH]1 [drawing 1996] | 1 to 25% | 26 to 50% |
| O=C(Cc1ccc2c(c1)OCCO2)Nc1nnc(-c2ccccn2)[nH]1 [drawing 1997] | 1 to 25% | 0% |
| N#CCc1ccc(OCC(=O)Nc2nnc(-c3ccccn3)[nH]2)cc1 [drawing 1998] | 1 to 25% | 0% |
| O=C(Nc1nnc(-c2ccccn2)[nH]1)c1ccc(=O)n(CCOc2ccccc2)n1 [drawing 1999] | 0% | 26 to 50% |
| COc1cn(-c2ccccc2)nc1C(=O)Nc1nnc(-c2ccccn2)[nH]1 [drawing 2000] | 0% | 26 to 50% |
| CN(CC(=O)Nc1nnc(-c2ccccn2)[nH]1)S(=O)(=O)c1ccccc1 [drawing 2001] | 0% | 1 to 25% |
| CS(=O)(=O)N1CCCc2cc(C(=O)Nc3nnc(-c4ccccn4)[nH]3)ccc21 [drawing 2002] | 1 to 25% | 26 to 50% |
| O=C(Nc1nnc(-c2ccccn2)[nH]1)c1ccc(=O)[nH]n1 [drawing 2003] | 1 to 25% | 26 to 50% |
| COc1ccc(COCC(=O)Nc2nnc(-c3ccccn3)[nH]2)cc1 [drawing 2004] | 1 to 25% | 26 to 50% |
| O=C(COCCOc1ccccc1)Nc1nnc(-c2ccccn2)[nH]1 [drawing 2005] | 1 to 25% | 0% |
| COc1ccc(OCc2nc(CNCCc3nnc4n3CCC4)cs2)cc1 [drawing 2006] | 0% | 1 to 25% |

| Compound | inhibition at 30 µM [1] | inhibition at 30 µM [2] |
| --- | --- | --- |
| O=C(Nc1nc(-c2ccccn2)cs1)C1COc2ccccc2O1 (centres unmarked) [drawing 2007] | 1 to 25% | 0% |
| Cc1cc(C(=O)Nc2nc(-c3ccccn3)cs2)no1 [drawing 2009] | 0% | 76 to 100% |
| O=C(Cn1c(=O)cnc2ccccc21)Nc1nc(-c2ccccn2)cs1 [drawing 2010] | 0% | 51 to 75% |
| O=C(Nc1nc(-c2ccccn2)cs1)c1ccc2nccnc2c1 [drawing 2011] | 0% | 51 to 75% |
| O=C(Nc1nc(-c2ccccn2)cs1)c1ccc2[nH]cnc2c1 [drawing 2012] | 1 to 25% | 26 to 50% |
| CS(=O)(=O)Cc1ccc(C(=O)Nc2nc(-c3ccccn3)cs2)cc1 [drawing 2013] | 1 to 25% | 0% |
| O=C(Nc1nc(-c2ccccn2)cs1)c1ccccn1 [drawing 2014] | 1 to 25% | 51 to 75% |
| O=C(Cn1cnc2ccccc2c1=O)Nc1nc(-c2ccccn2)cs1 [drawing 2015] | 1 to 25% | 51 to 75% |
| O=C(Nc1nc(-c2ccccn2)cs1)C1CC(=O)N(c2ccc3c(c2)OCCO3)C1 (centres unmarked) [drawing 2016] | 1 to 25% | 26 to 50% |
| O=C(Nc1nc(-c2ccccn2)cs1)c1cccnc1 [drawing 2017] | 1 to 25% | 1 to 25% |
| O=C(Cc1cccc(F)c1)Nc1nc(-c2ccccn2)cs1 [drawing 2018] | 1 to 25% | 1 to 25% |
| O=C(Nc1nc(-c2ccccn2)cs1)c1ccncc1 [drawing 2019] | 1 to 25% | 26 to 50% |
| O=C(Nc1nc(-c2ccccn2)cs1)c1ccc(F)cc1 [drawing 2020] | 26 to 50% | 26 to 50% |
| COc1ccc(-c2csc3[nH]c(-c4ccccn4)nc(=O)c23)cc1 [drawing 2023] | 1 to 25% | 26 to 50% |
| O=c1nc(-c2ccccn2)[nH]c2scc(-c3cccs3)c12 [drawing 2024] | 1 to 25% | 0% |
| O=c1nc(-c2ccccn2)[nH]c2scc(-c3ccccc3Cl)c12 [drawing 2025] | 1 to 25% | 0% |
| Cc1sc2[nH]c(-c3ccccn3)nc(=O)c2c1-c1ccccc1 [drawing 2026] | 1 to 25% | 0% |
| O=c1nc(-c2ccccn2)[nH]c2ccsc12 [drawing 2027] | 0% | 1 to 25% |
| O=c1nc(-c2ccccn2)[nH]c2sc(-c3ccccc3)cc12 [drawing 2028] | 76 to 100% | 51 to 75% |
| CCN(CC)C(=O)c1sc2[nH]c(-c3ccccn3)nc(=O)c2c1C [drawing 2029] | 1 to 25% | 1 to 25% |
| O=c1nc(-c2ccccn2)[nH]c2c1sc1ccccc12 [drawing 2030] | 76 to 100% | 76 to 100% |
| Cc1cc2c(=O)nc(-c3cc(OCC(F)F)ccn3)[nH]c2s1 [drawing 2031] | 1 to 25% | 1 to 25% |
| Cc1nc(-c2ccccn2)nc(O)c1CCC(=O)Nc1cc(F)ccc1F [drawing 2032] | 1 to 25% | 1 to 25% |

| Compound | inhibition at 30 µM [1] | inhibition at 30 µM [2] |
| --- | --- | --- |
| Cc1nc(-c2ccccn2)nc(O)c1CCC(=O)NC1CCc2ccccc21 (centres unmarked) [drawing 2033] | 26 to 50% | 26 to 50% |
| Cc1nc(-c2ccccn2)nc(O)c1CCC(=O)Nc1ccc(C(C)C)cc1 [drawing 2034] | 1 to 25% | 0% |
| Cc1nc(-c2ccccn2)nc(O)c1CCC(=O)NCC1COc2ccccc2O1 (centres unmarked) [drawing 2035] | 1 to 25% | 0% |
| Cc1nc(-c2ccccn2)nc(O)c1CCC(=O)Nc1cccc(OCC(=O)N2CCCC2)c1 [drawing 2036] | 1 to 25% | 0% |
| CCN(CC)S(=O)(=O)c1cc(C)c(C)c(NC(=O)CCc2c(C)nc(-c3ccccn3)nc2O)c1 [drawing 2037] | 1 to 25% | 0% |
| OCCNc1nc(-c2ccccn2)nc2scc(-c3ccccc3)c12 [drawing 2038] | 0% | 1 to 25% |
| COCC(C)Nc1nc(-c2ccccn2)nc2sc(C)c(-c3ccccc3)c12 (centres unmarked) [drawing 2039] | 76 to 100% | 76 to 100% |
| CCc1cc(NNC(=O)c2ccc(C#N)cc2)nc(-c2ccccn2)n1 [drawing 2040] | 76 to 100% | 76 to 100% |
| COCCCn1ccc(Nc2cc(C)nc(-c3ccccn3)n2)n1 [drawing 2041] | 0% | 26 to 50% |
| CC(O)CNc1nc(-c2ccccn2)nc2scc(-c3ccccc3)c12 (centres unmarked) [drawing 2042] | 1 to 25% | 26 to 50% |
| NC(=O)C1(CNc2nc(-c3ccccn3)nc3c2CCC3)CCCC1 [drawing 2043] | 1 to 25% | 26 to 50% |
| OCCOCCNc1nc(-c2ccccn2)nc2scc(-c3ccccc3)c12 [drawing 2044] | 1 to 25% | 1 to 25% |
| Cc1sc2nc(-c3ccccn3)nc(NCCCO)c2c1-c1ccccc1 [drawing 2045] | 1 to 25% | 1 to 25% |
| COC(=O)c1cccc(CN2CCC(CSc3ccccc3)C2)c1C#N (centres unmarked) [drawing 2046] | 0% | 26 to 50% |
| COC(=O)c1cc(NCc2nc(CC(C)C)no2)ccc1Cl [drawing 2047] | 1 to 25% | 26 to 50% |
| Cc1cccc(CN(Cc2ccccn2)Cc2nccn2C)c1 [drawing 2048] | 1 to 25% | 26 to 50% |
| Cc1ccc(CN(Cc2ccco2)C(=O)c2oc3ccccc3c2C)cc1 [drawing 2049] | 0% | 1 to 25% |
| Cc1ccc(O)c(CN(C)Cc2nccn2Cc2ccccc2)n1 [drawing 2050] | 0% | 1 to 25% |
| FC(F)(F)Sc1ccc(Cc2ccc(SC(F)(F)F)cc2)cc1 [drawing 2051] | 0% | 1 to 25% |
| CCCCSc1nc(-c2cccs2)c(C(=O)C(F)(F)F)cc1C#N [drawing 2053] | 0% | 51 to 75% |
| CCC(C)(C)c1ccc(OCCCC(=O)NC(C(=O)OC)C(C)C)c(C(C)(C)CC)c1 (centres unmarked) [drawing 2054] | 26 to 50% | 26 to 50% |
